US8188085B2, “Antifungal agents” (Merck Sharp & Dohme Corp., priority 2008, dated 2012)

Target: glucan synthase (GS) prepared from Candida albicans MY1055 (Candida albicans, UniProt O13428)
Test: Glucan synthase inhibition (polymerization assay, 96-well)
Format: biochemical
Conditions: GS from C. albicans MY1055; 60 min incubation at 22° C.; read-out: Candida Albicans GS IC50 (converted)
Outline: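 Partially purified glucan synthase from C. albicans MY1055 membranes incorporated 0.5 mM ³H-UDPG with 25 μM GTP-γ-S, HEPES pH 7.5, over 60 min at 22 °C. TCA-precipitated glucan was counted by scintillation. IC50 (ng/mL) came from sigmoidal fits of duplicate 3-fold dilution series.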

Sequence of glucan synthase (GS) prepared from Candida albicans MY1055 (O13428 1-1897): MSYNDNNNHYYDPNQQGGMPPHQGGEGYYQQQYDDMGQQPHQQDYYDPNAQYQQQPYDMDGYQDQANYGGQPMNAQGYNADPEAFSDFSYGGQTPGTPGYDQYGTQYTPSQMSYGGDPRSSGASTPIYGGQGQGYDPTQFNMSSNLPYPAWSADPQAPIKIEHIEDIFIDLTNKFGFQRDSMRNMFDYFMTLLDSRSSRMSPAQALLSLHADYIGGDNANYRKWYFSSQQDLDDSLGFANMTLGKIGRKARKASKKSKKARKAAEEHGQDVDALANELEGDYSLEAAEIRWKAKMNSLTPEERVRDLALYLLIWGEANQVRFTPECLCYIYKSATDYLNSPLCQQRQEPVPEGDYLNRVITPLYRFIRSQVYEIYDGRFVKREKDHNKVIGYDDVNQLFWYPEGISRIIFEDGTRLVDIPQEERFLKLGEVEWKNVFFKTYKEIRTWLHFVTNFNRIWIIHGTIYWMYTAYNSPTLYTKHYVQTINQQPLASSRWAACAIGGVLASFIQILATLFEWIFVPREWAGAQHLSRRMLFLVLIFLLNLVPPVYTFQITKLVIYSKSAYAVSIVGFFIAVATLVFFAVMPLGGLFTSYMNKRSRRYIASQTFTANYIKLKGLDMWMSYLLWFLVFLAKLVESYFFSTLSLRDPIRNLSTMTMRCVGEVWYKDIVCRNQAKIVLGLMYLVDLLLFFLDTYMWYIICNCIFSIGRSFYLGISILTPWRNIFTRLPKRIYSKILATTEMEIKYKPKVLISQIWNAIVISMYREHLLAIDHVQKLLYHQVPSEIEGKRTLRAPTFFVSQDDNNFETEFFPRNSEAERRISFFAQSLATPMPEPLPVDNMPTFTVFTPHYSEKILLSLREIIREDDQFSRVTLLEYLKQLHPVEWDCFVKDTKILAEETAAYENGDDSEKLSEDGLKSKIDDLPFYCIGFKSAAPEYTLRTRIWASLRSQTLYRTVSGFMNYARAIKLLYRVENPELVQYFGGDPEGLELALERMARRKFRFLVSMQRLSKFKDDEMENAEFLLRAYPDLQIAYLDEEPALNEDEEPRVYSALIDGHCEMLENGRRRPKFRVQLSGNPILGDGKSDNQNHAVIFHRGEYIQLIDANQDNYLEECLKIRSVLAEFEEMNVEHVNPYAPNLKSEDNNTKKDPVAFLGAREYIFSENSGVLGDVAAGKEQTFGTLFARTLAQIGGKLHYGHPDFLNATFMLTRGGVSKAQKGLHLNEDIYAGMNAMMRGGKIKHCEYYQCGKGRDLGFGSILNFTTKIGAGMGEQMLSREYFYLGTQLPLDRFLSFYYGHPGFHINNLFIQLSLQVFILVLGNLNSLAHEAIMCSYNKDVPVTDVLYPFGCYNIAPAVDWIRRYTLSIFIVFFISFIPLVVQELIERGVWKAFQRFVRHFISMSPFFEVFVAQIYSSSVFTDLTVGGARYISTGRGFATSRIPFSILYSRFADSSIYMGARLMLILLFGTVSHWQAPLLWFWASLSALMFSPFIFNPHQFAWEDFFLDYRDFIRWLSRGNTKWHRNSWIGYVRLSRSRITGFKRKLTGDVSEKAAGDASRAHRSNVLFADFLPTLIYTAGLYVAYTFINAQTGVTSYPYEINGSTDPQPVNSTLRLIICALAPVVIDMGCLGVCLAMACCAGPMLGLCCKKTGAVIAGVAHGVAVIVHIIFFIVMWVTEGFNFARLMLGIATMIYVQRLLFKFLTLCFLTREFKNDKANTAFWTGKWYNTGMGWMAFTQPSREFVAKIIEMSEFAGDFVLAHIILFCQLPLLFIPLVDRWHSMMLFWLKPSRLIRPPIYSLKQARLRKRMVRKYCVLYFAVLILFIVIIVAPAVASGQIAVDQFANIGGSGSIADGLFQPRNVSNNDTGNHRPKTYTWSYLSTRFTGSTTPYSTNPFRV

Structure (SMILES) | IC50 [nM]
CC(C)[C@@H](C)[C@@]1(C)CC[C@]2(C)[C@H]3CC[C@@H]4[C@@]5(COC[C@@]4(C)[C@@H](OC[C@](C)(N)C(C)C)[C@H](n4ncnc4N4CCOCC4)C5)C3=CC[C@@]2(C)[C@@H]1C(=O)O [Example 148, (1S,4aR,6aS,7R,8R,10aR,10bR,12aR,14R,15R)-15-[[(2R)-2-amino-2,3-dimethylbutyl]oxy]-8-[(1R)-1,2-dimethylpropyl]-14-[5-(4-morpholinyl)-1H-1,2,4-triazol-1-yl]-1,6,6a,7,8,9,10,10a,10b,11,12,12a-dodecahydro-1,6a,8,10a-tetramethyl-4H-1,4a-propano-2H-phenanthro[1,2-c]pyran-7-carboxylic acid] | 18
CC(C)[C@@H](C)[C@@]1(C)CC[C@]2(C)[C@H]3CC[C@@H]4[C@@]5(COC[C@@]4(C)[C@@H](OC[C@](C)(N)C(C)C)[C@H](n4ncnc4-c4ccc6ccccc6c4)C5)C3=CC[C@@]2(C)[C@@H]1C(=O)O [Example 158, (1S,4aR,6aS,7R,8R,10aR,10bR,12aR,14R,15R)-15-[[(2R)-2-amino-2,3-dimethylbutyl]oxy]-8-[(1R)-1,2-dimethylpropyl]-14-[5-(2-naphthalenyl)-1H-1,2,4-triazol-1-yl]-1,6,6a,7,8,9,10,10a,10b,11,12,12a-dodecahydro-1,6a,8,10a-tetramethyl-4H-1,4a-propano-2H-phenanthro[1,2-c]pyran-7-carboxylic acid] | 20.9
CN[C@@](C)(CO[C@H]1[C@H](n2ncnc2-c2cccs2)C[C@@]23COC[C@]1(C)[C@@H]2CC[C@H]1C3=CC[C@@]2(C)[C@H](C(=O)O)[C@@](C)([C@H](C)C(C)C)CC[C@]12C)C(C)C [Example 163, (1S,4aR,6aS,7R,8R,10aR,10bR,12aR,14R,15R)-15-[[(2R)-2,3-dimethyl-2-(methylamino)butyl]oxy]-8-[(1R)-1,2-dimethylpropyl]-14-[5-(2-thienyl)-1H-1,2,4-triazol-1-yl]-1,6,6a,7,8,9,10,10a,10b,11,12,12a-dodecahydro-1,6a,8,10a-tetramethyl-4H-1,4a-propano-2H-phenanthro[1,2-c]pyran-7-carboxylic acid] | 6.8
CCCc1ncnn1[C@@H]1C[C@@]23COC[C@](C)([C@@H]2CC[C@H]2C3=CC[C@@]3(C)[C@H](C(=O)O)[C@@](C)([C@H](C)C(C)C)CC[C@]23C)[C@H]1OC[C@](C)(N)C(C)C [Example 169, (1S,4aR,6aS,7R,8R,10aR,10bR,12aR,14R,15R)-15-[[(2R)-2-amino-2,3-dimethylbutyl]oxy]-8-[(1R)-1,2-dimethylpropyl]-14-(5-propyl-1H-1,2,4-triazol-1-yl)-1,6,6a,7,8,9,10,10a,10b,11,12,12a-dodecahydro-1,6a,8,10a-tetramethyl-4H-1,4a-propano-2H-phenanthro[1,2-c]pyran-7-carboxylic acid] | 4.41
CC(C)[C@@H](C)[C@@]1(C)CC[C@]2(C)[C@H]3CC[C@@H]4[C@@]5(COC[C@@]4(C)[C@@H](OC[C@](C)(N)C(C)(C)C)[C@H](n4ncnc4-c4ccc(CN)cc4)C5)C3=CC[C@@]2(C)[C@@H]1C(=O)O [Example 178, (1S,4aR,6aS,7R,8R,10aR,10bR,12aR,14R,15R)-14-[5-[4-(aminomethyl)phenyl]-1H-1,2,4-triazol-1-yl]-15-[[(2R)-2-amino-2,3,3-trimethylbutyl]oxy]-8-[(1R)-1,2-dimethylpropyl]-1,6,6a,7,8,9,10,10a,10b,11,12,12a-dodecahydro-1,6a,8,10a-tetramethyl-4H-1,4a-propano-2H-phenanthro[1,2-c]pyran-7-carboxylic acid] | 1.06
CC(C)[C@@H](C)[C@@]1(C)CC[C@]2(C)[C@H]3CC[C@@H]4[C@@]5(COC[C@@]4(C)[C@@H](OC[C@](C)(N)C(C)C)[C@H](n4ncnc4-c4ccc(N)cc4)C5)C3=CC[C@@]2(C)[C@@H]1C(=O)O [Example 200, (1S,4aR,6aS,7R,8R,10aR,10bR,12aR,14R,15R)-15-[[(2R)-2-amino-2,3-dimethylbutyl]oxy]-14-[5-(4-aminophenyl)-1H-1,2,4-triazol-1-yl]-8-[(1R)-1,2-dimethylpropyl]-1,6,6a,7,8,9,10,10a,10b,11,12,12a-dodecahydro-1,6a,8,10a-tetramethyl-4H-1,4a-propano-2H-phenanthro[1,2-c]pyran-7-carboxylic acid] | 8.22

Further lines, results first:

IC50 [nM] | Structure (SMILES)
2.74 | CN[C@@](C)(CO[C@H]1[C@H](n2ncnc2-c2ccccc2)C[C@@]23COC[C@]1(C)[C@@H]2CC[C@H]1C3=CC[C@@]2(C)[C@H](C(=O)O)[C@@](C)([C@H](C)C(C)C)CC[C@]12C)C(C)C [Example 150, (1S,4aR,6aS,7R,8R,10aR,10bR,12aR,14R,15R)-15-[[(2R)-2,3-dimethyl-2-(methylamino)butyl]oxy]-8-[(1R)-1,2-dimethylpropyl]-14-(5-phenyl-1H-1,2,4-triazol-1-yl)-1,6,6a,7,8,9,10,10a,10b,11,12,12a-dodecahydro-1,6a,8,10a-tetramethyl-4H-1,4a-propano-2H-phenanthro[1,2-c]pyran-7-carboxylic acid]
4.42 | C=C(C)c1ncnn1[C@@H]1C[C@@]23COC[C@](C)([C@@H]2CC[C@H]2C3=CC[C@@]3(C)[C@H](C(=O)O)[C@@](C)([C@H](C)C(C)C)CC[C@]23C)[C@H]1OC[C@](C)(N)C(C)C [Example 168, (1S,4aR,6aS,7R,8R,10aR,10bR,12aR,14R,15R)-15-[[(2R)-2-amino-2,3-dimethylbutyl]oxy]-8-[(1R)-1,2-dimethylpropyl]-14-[5-(1-methylethenyl)-1H-1,2,4-triazol-1-yl]-1,6,6a,7,8,9,10,10a,10b,11,12,12a-dodecahydro-1,6a,8,10a-tetramethyl-4H-1,4a-propano-2H-phenanthro[1,2-c]pyran-7-carboxylic acid]
4.15 | CC(C)[C@@H](C)[C@@]1(C)CC[C@]2(C)[C@H]3CC[C@@H]4[C@@]5(COC[C@@]4(C)[C@@H](OC[C@](C)(N)C(C)C)[C@H](n4ncnc4-c4cncs4)C5)C3=CC[C@@]2(C)[C@@H]1C(=O)O [Example 193, (1S,4aR,6aS,7R,8R,10aR,10bR,12aR,14R,15R)-15-[[(2R)-2-amino-2,3-dimethylbutyl]oxy]-8-[(1R)-1,2-dimethylpropyl]-14-[5-(5-thiazolyl)-1H-1,2,4-triazol-1-yl]-1,6,6a,7,8,9,10,10a,10b,11,12,12a-dodecahydro-1,6a,8,10a-tetramethyl-4H-1,4a-propano-2H-phenanthro[1,2-c]pyran-7-carboxylic acid]
0.546 | CC(C)[C@@H](C)[C@@]1(C)CC[C@]2(C)[C@H]3CC[C@@H]4[C@@]5(COC[C@@]4(C)[C@@H](OC[C@](C)(N)C(C)C)[C@H](n4ncnc4-c4ccc(O)nc4)C5)C3=CC[C@@]2(C)[C@@H]1C(=O)O [Example 199, (1S,4aR,6aS,7R,8R,10aR,10bR,12aR,14R,15R)-15-[[(2R)-2-amino-2,3-dimethylbutyl]oxy]-8-[(1R)-1,2-dimethylpropyl]-14-[5-(6-hydroxy-3-pyridinyl)-1H-1,2,4-triazol-1-yl]-1,6,6a,7,8,9,10,10a,10b,11,12,12a-dodecahydro-1,6a,8,10a-tetramethyl-4H-1,4a-propano-2H-phenanthro[1,2-c]pyran-7-carboxylic acid]
1.34 | CC(C)[C@@H](C)[C@@]1(C)CC[C@]2(C)[C@H]3CC[C@@H]4[C@@]5(COC[C@@]4(C)[C@@H](OC[C@](C)(N)C(C)(C)C)[C@H](n4ncnc4-c4ccnc(N)c4)C5)C3=CC[C@@]2(C)[C@@H]1C(=O)O [Example 214, (1S,4aR,6aS,7R,8R,10aR,10bR,12aR,14R,15R)-14-[5-(2-amino-4-pyridinyl)-1H-1,2,4-triazol-1-yl]-15-[[(2R)-2-amino-2,3,3-trimethylbutyl]oxy]-8-[(1R)-1,2-dimethylpropyl]-1,6,6a,7,8,9,10,10a,10b,11,12,12a-dodecahydro-1,6a,8,10a-tetramethyl-4H-1,4a-propano-2H-phenanthro[1,2-c]pyran-7-carboxylic acid]
1.07 | CC(C)[C@@H](C)[C@@]1(C)CC[C@]2(C)[C@H]3CC[C@@H]4[C@@]5(COC[C@@]4(C)[C@@H](OC[C@](C)(N)C(C)(C)C)[C@H](n4ncnc4-c4ccc(O)nc4)C5)C3=CC[C@@]2(C)[C@@H]1C(=O)O [Example 218, (1S,4aR,6aS,7R,8R,10aR,10bR,12aR,14R,15R)-15-[[(2R)-2-amino-2,3,3-trimethylbutyl]oxy]-8-[(1R)-1,2-dimethylpropyl]-14-[5-(6-hydroxy-3-pyridinyl)-1H-1,2,4-triazol-1-yl]-1,6,6a,7,8,9,10,10a,10b,11,12,12a-dodecahydro-1,6a,8,10a-tetramethyl-4H-1,4a-propano-2H-phenanthro[1,2-c]pyran-7-carboxylic acid]
3.88 | CC(C)[C@@H](C)[C@@]1(C)CC[C@]2(C)[C@H]3CC[C@@H]4[C@@]5(COC[C@@]4(C)[C@@H](OC[C@](C)(N)C(C)(C)C)[C@H](n4ncnc4-c4ccc(C(N)=O)nc4)C5)C3=CC[C@@]2(C)[C@@H]1C(=O)O [Example 221, (1S,4aR,6aS,7R,8R,10aR,10bR,12aR,14R,15R)-14-[5-[6-(aminocarbonyl)-3-pyridinyl]-1H-1,2,4-triazol-1-yl]-15-[[(2R)-2-amino-2,3,3-trimethylbutyl]oxy]-8-[(1R)-1,2-dimethylpropyl]-1,6,6a,7,8,9,10,10a,10b,11,12,12a-dodecahydro-1,6a,8,10a-tetramethyl-4H-1,4a-propano-2H-phenanthro[1,2-c]pyran-7-carboxylic acid]
7.77 | CC(C)[C@@H](C)[C@@]1(C)CC[C@]2(C)[C@H]3CC[C@@H]4[C@@]5(COC[C@@]4(C)[C@@H](OC[C@](C)(N)C(C)(C)C)[C@H](n4ncnc4-c4cccc(C(N)=O)c4)C5)C3=CC[C@@]2(C)[C@@H]1C(=O)O [Example 228, (1S,4aR,6aS,7R,8R,10aR,10bR,12aR,14R,15R)-14-[5-[3-(aminocarbonyl)phenyl]-1H-1,2,4-triazol-1-yl]-15-[[(2R)-2-amino-2,3,3-trimethylbutyl]oxy]-8-[(1R)-1,2-dimethylpropyl]-1,6,6a,7,8,9,10,10a,10b,11,12,12a-dodecahydro-1,6a,8,10a-tetramethyl-4H-1,4a-propano-2H-phenanthro[1,2-c]pyran-7-carboxylic acid]
